From PubChem BioAssay (NCI) come the findings set out here.

SMILES strings stand for the structures.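 Method: 48-hour compound exposure of cells in 96-well plates, five concentrations, linear interpolation of endpoints. At the TGI there is no net growth.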

Test in all cases: NCI tumour cell line growth inhibition, 48 h
Assay [1] has as its system NCI-H23 lung.
Assay [2] concerns HL-60(TB) leukemia.
Assay [3] deals with M14 melanoma.
Assay [4] has as its system UACC-257 melanoma.
Assay [5] deals with CAKI-1 renal.
Assay [6] has as its system SF-268 CNS.
The test system of assay [7] is HS 578T breast.
Assay [8] has as its system SK-MEL-28 melanoma.
In assay [9] the test system is SK-MEL-5 melanoma.
Assay [10] deals with OVCAR-3 ovarian.
Assay [11] relates to SNB-19 CNS.
In assay [12] the test system is UACC-62 melanoma.
In assay [13] the test system is MALME-3M melanoma.
For assay [14], the system named is PC-3 prostate.
Assay [15] relates to NCI-H226 lung.
Assay [16] deals with MDA-MB-435.

Consider `C=CC[C@H](O)[C@@](NC(=O)OCc1ccccc1)(Sc1ccc(C)cc1)C(F)(F)F`, for which the TGI amounted to 70.2 µM in assay [1]; 28.9 µM in assay [2]; 74.4 µM in [3]; 74.1 µM in assay [4]; 87.7 µM in assay [5]; 47.9 µM in assay [6]. The TGI in assay [7] is 82.8 µM; in assay [8] it was above 100 µM; in [9] it was above 100 µM; in [10], 48.5 µM; in [11], above 100 µM; in assay [12], above 100 µM. Further, the TGI in assay [13] is above 100 µM; in assay [14] it was above 100 µM; in assay [15], 35.9 µM; in assay [16], 84 µM.

As for `COc1ccc2cc(NC(=O)Nn3cnnc3)ccc2c1`, the TGI in [1], in assay [2], in assay [3], in [4], in assay [5] and in [6] was above 100 µM throughout. Further, the TGI in assay [7], in assay [8], in assay [9], in [10], in assay [11] and in assay [12] was above 100 µM throughout. Further, the TGI in [13], in assay [14], in [15] and in assay [16] was above 100 µM each time.

As for `CCN(CC)CCOc1ccc(N2Cc3cc(OC)c(OC)cc3C2=O)cc1`, the TGI in assay [1], in assay [2], in [3], in assay [4], in assay [5] and in assay [6] was above 100 µM throughout. For the same compound, the TGI in assay [7], in assay [8], in [9], in assay [10], in [11] and in assay [12] was above 100 µM in each case. Also, the TGI in assay [13], in assay [14], in assay [15] and in assay [16] was above 100 µM in each case.

As for `c1ccc(C2C3=C(c4ccccc4CC3)N3c4cc5nc6ccccc6nc5cc4NC34CCCCC24)cc1` (centres undefined), the TGI was above 10 µM in assay [1]; above 6.29 µM in [2]; above 10 µM in [3]; above 10 µM in assay [4]; above 10 µM in assay [5]; above 10 µM in assay [6]. Also, the TGI in assay [7], in [8], in assay [9], in [10], in assay [11] and in assay [12] was above 10 µM in each case. Besides, the TGI in assay [13], in assay [14], in [15] and in [16] was above 10 µM each time.

Regarding `Cc1nn(C(=O)c2ccc(Cl)cc2)c2c1C(c1ccccc1)SC(N)=N2` (centres undefined), the TGI in [1], in assay [2], in assay [3], in assay [4], in assay [5] and in [6] was above 10 µM each time. Moreover, the TGI in assay [7], in assay [8], in [9], in assay [10], in assay [11] and in [12] was above 10 µM each time. The TGI in assay [13], in assay [14], in [15] and in [16] was above 10 µM in each case.

As to `[N-]=[N+]=NCC(=O)c1c[nH]c(=O)[nH]c1=O`, the TGI in assay [1], in assay [2], in assay [3], in assay [4], in assay [5] and in assay [6] was above 100 µM in each case. In addition, the TGI in assay [7], in assay [8], in assay [9], in [10], in assay [11] and in [12] was above 100 µM throughout. In addition, the TGI in assay [13], in assay [14], in [15] and in assay [16] was above 100 µM each time.

As to `CCN(CC)CCC1CCCCN1CC(=O)N1c2ccccc2NC(=O)CC1C` (centres undefined), the TGI in [1], in [2], in assay [3], in [4], in assay [5] and in assay [6] was above 100 µM in each case. Besides, the TGI in assay [7], in assay [8], in assay [9], in assay [10], in [11] and in assay [12] was above 100 µM each time. The TGI in assay [13], in [14], in assay [15] and in assay [16] was above 100 µM each time.

For `CCOc1ccc(-n2c(=O)c3nn4c(=O)n(-c5ccc(OCC)cc5)c(=O)c4nn3c2=O)cc1`, the TGI in [1], in assay [2], in assay [3], in assay [4], in assay [5] and in assay [6] was above 100 µM in each case. Besides, the TGI in assay [7], in assay [8], in [9], in assay [10], in assay [11] and in assay [12] was above 100 µM throughout. Further, the TGI in [13], in [14], in assay [15] and in assay [16] was above 100 µM throughout.

With `Cc1ccc(C2=NN=C3C(c4ccccc4)=Nc4ccccc4N3C2)cc1`, the TGI in assay [1] was above 100 µM; in [2], 9.64 µM; in assay [3], 34.4 µM; in assay [4] it was 33.6 µM; in assay [5], above 100 µM; in assay [6], above 49.4 µM. Besides, the TGI in assay [7] was 40 µM; in [8], above 100 µM; in [9] it was 32.8 µM; in [10] it was 10.4 µM; in assay [11], above 78.3 µM; in [12] it was above 100 µM. Moreover, the TGI was 47.2 µM in assay [13], above 100 µM in [14], above 100 µM in assay [15] and above 100 µM in assay [16].

For the compound `CCN1CCC(O)(/C=C/c2cccc(C)c2)C(C(=O)/C=C/c2cccc(C)c2)C1` (centres undefined), the TGI in assay [1] was 4.95 µM; in assay [2], above 100 µM; in [3], 7.47 µM; in assay [4] it was 7.31 µM; in assay [5], 4.31 µM; in [6], 3.44 µM. Also, the TGI was 4.97 µM in [7]; 4.49 µM in assay [8]; 3.99 µM in assay [9]; 12.4 µM in assay [10]; 15.4 µM in [11]; 3.54 µM in [12]. Also, the TGI in [13] was 3.53 µM; in assay [14], above 25.4 µM; in assay [15], 5.89 µM; in [16], 4.61 µM.

`Cc1ccc([N+](=O)[O-])cc1S(=O)(=O)Nc1ccc(C(=O)/C=C/c2ccccc2)cc1`: the TGI in assay [1] came to 34.7 µM; in assay [2] it was 65.1 µM; in assay [3], 43.1 µM; in assay [4], 34.6 µM; in [5], 55.4 µM; in assay [6] it was 73.2 µM. Further, the TGI in [7] was above 100 µM; in assay [8] it was 49.6 µM; in assay [9] it was 32.1 µM; in [10], 30.7 µM; in [11], 39.6 µM; in assay [12], 28.1 µM. Besides, the TGI is 39.5 µM in [13], 30.6 µM in assay [14], 98.4 µM in [15] and 36.6 µM in [16].

In the case of `CN(NC(=O)c1ccc(Cl)cc1)C1=NCCCCN1`, the TGI in assay [1], in assay [2], in assay [3], in [4], in [5] and in [6] was above 100 µM throughout. In addition, the TGI in assay [7], in [8], in assay [9], in assay [10], in assay [11] and in assay [12] was above 100 µM in each case. The TGI in assay [13], in [14], in [15] and in assay [16] was above 100 µM each time.

For the compound `Brc1ccc2[nH]cc([C@@H]3CN[C@@H](c4c[nH]c5ccc(Br)cc45)CN3)c2c1`, the TGI turned out to be 25.3 µM in assay [1]; 4.24 µM in [2]; 15 µM in [3]; 23.7 µM in assay [4]; 21.9 µM in [5]; 27.8 µM in assay [6]. Also, the TGI in assay [7] worked out at 29.6 µM; in assay [8], 27.8 µM; in assay [9] it was 20.8 µM; in [10] it was 18.4 µM; in [11], 24.3 µM; in assay [12] it was 21.8 µM. In addition, the TGI in assay [13] came to 29.6 µM; in assay [14], 14.7 µM; in assay [15] it was 31.3 µM; in assay [16], 11.9 µM.

Consider `O=C(O)[C@@]1(Cc2ccc(O)cc2)C[C@@H]2Cc3ccccc3N2N1`, for which the TGI in assay [1], in assay [2], in assay [3], in assay [4], in [5] and in assay [6] was above 100 µM in each case. Moreover, the TGI in assay [7], in [8], in assay [9], in assay [10], in [11] and in assay [12] was above 100 µM throughout. For the same compound, the TGI in assay [13], in [14], in assay [15] and in [16] was above 100 µM in each case.
